Data published in patent US8017612B2, “Piperazine compound and use thereof as a HCV polymerase inhibitor” (priority 2006, dated 2011).
Counter-ions that a name gives are not always drawn.

What was measured:
[1] = biological target: T1, HCV polymerase (NS5B) type 1b (Hepatitis C virus genotype 1b, UniProt P26663); test: Assay of enzyme (HCV polymerase) inhibitory activity, type 1b enzyme; type: biochemical, HCV BK strain (type 1b)
T1 construct: a region encoding NS5B (J Virol 1991 March, 65(3), 1105-13, 544 amino acids after deletion of 47 amino acids on the C-terminal); 6xHis (C); made in house; host or cells: Escherichia coli
How it was run: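 IC50 derived from [3H]UTP incorporation into TCA-insoluble RNA, compared with and without test compound. Reaction (25 °C, 60 min, Tris pH 7.5, 5 mM MgCl2): E. coli-expressed 1b NS5B Δ47 with His tag at 0.5 μg/ml, 5 μg/ml run-off substrate RNA, ATP/GTP/CTP 50 μM, UTP 2 μM.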

[2] = biological target: T2, HCV polymerase (NS5B) type 1a (Hepatitis C virus genotype 1a, UniProt P26664); test: Assay of enzyme (HCV polymerase) inhibitory activity, type 1a enzyme; type: biochemical, HCV type 1a (cloned from the blood of patients)
T2 construct: made in house; host or cells: Escherichia coli (by the 'similar method' of the 1b enzyme)
How it was run: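 Reactions ran 60 min at 25° C in 20 mM Tris-HCl pH 7.5, 5 mM MgCl2, 50 mM NaCl, holding genotype 1a NS5B (1.5 μg/ml, Δ47 C-terminus, 6His), substrate RNA 5 μg/ml, UTP 2 μM with tritiated UTP and other NTPs 50 μM. IC50 derived from incorporated radiolabel in filter-trapped RNA relative to uninhibited reaction.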

[3] = HCV polymerase inhibitory activity IC50, 1b, type 1b enzyme
[4] = HCV polymerase inhibitory activity IC50, 1a, type 1a enzyme
[5] = HCV polymerase inhibitory activity (IC50), 1b, type 1b enzyme 0.5 μg/ml, 25° C., 60 min
[6] = HCV polymerase inhibitory activity (IC50), 1a, type 1a enzyme 1.5 μg/ml, 25° C., 60 min

## O=C(O)c1cncc2sc(N3CCN(S(=O)(=O)c4ccc(OC(F)(F)F)cc4)[C@@H](C(=O)NCc4ccc(OC(F)(F)F)cc4)C3)nc12 [Example 1104, 2-[(R)-4-(4-trifluoromethoxy-benzenesulfonyl)-3-(4-trifluoromethoxy-benzylcarbamoyl)-piperazin-1-yl]-thiazolo[5,4-c]pyridine-7-carboxylic acid]
[1]; [3]
  IC50: < 100 nM
[2]; [4]
  IC50: < 100 nM

## CC(C)c1ccc(CNC(=O)[C@H]2CN(c3ccc(C(=O)O)nn3)CCN2S(=O)(=O)c2ccc(C(F)(F)F)cc2)cc1 [Example 376, 6-[(R)-3-(4-isopropyl-benzylcarbamoyl)-4-(4-trifluoromethyl-benzenesulfonyl)-piperazin-1-yl]-pyridazine-3-carboxylic acid]
[1]; [5]
  IC50: < 100 nM
[2]; [6]
  IC50: < 100 nM

## CC(=O)N1CCN(S(=O)(=O)c2ccc(C(F)(F)F)cc2)C(C(=O)NCc2ccc(C(F)(F)F)cc2)C1 (stereo not shown) [Example 45, 4-acetyl-1-(4-trifluoromethyl-benzenesulfonyl)-piperazine-2-carboxylic acid 4-trifluoromethyl-benzylamide]
[1]; [5]
  IC50: > 1000 nM
[2]; [6]
  IC50: > 1000 nM

## CCCc1ccc(CNC(=O)[C@H]2CN(c3ccc(C(N)=O)nn3)CCN2S(=O)(=O)c2ccc(OC(F)(F)F)cc2)cc1 [Example 547, 6-[(R)-3-(4-propyl-benzylcarbamoyl)-4-(4-trifluoromethoxy-benzenesulfonyl)-piperazin-1-yl]-pyridazine-3-carboxylic acid amide]
[1]; [5]
  IC50: < 100 nM
[2]; [6]
  IC50: < 100 nM

## O=C(NCc1ccc(OC(F)(F)F)cc1)[C@H]1CN(c2ccc(=O)[nH]c2)CCN1S(=O)(=O)c1ccc(OC(F)(F)F)cc1 [Example 924, (R)-4-(6-oxo-1,6-dihydro-pyridin-3-yl)-1-(4-trifluoromethoxy-benzenesulfonyl)-piperazine-2-carboxylic acid 4-trifluoromethoxy-benzylamide hydrochloride]
[1]; [3]
  IC50: 100 to 1000 nM
[2]; [4]
  IC50: 100 to 1000 nM

## CC(=O)N1CCN(S(=O)(=O)c2ccc(CC(=O)O)s2)[C@@H](C(=O)NCc2ccc(C(C)C)cc2)C1 [Example 289, {5-[(R)-4-acetyl-2-(4-isopropyl-benzylcarbamoyl)-piperazine-1-sulfonyl]-thiophen-2-yl}-acetic acid]
[1]; [5]
  IC50: > 1000 nM
[2]; [6]
  IC50: > 1000 nM

## NC(=O)c1ncc2sc(N3CCN(S(=O)(=O)c4ccc(OC(F)(F)F)cc4)[C@@H](C(=O)NCc4ccc(OC(F)(F)F)cc4)C3)nc2n1 [Example 979, 2-[(R)-4-(4-trifluoromethoxy-benzenesulfonyl)-3-(4-trifluoromethoxy-benzylcarbamoyl)-piperazin-1-yl]-thiazolo[4,5-d]pyrimidine-5-carboxylic acid amide]
[1]; [3]
  IC50: < 100 nM
[2]; [4]
  IC50: < 100 nM

## O=C(NCc1ccc(OC(F)(F)F)cc1)[C@H]1CN(c2nn3ccc(=O)nc3s2)CCN1S(=O)(=O)c1ccc(C(F)(F)F)cc1 [Example 1059, (R)-4-(7-oxo-7H-[1,3,4]thiadiazolo[3,2-a]pyrimidin-2-yl)-1-(4-trifluoromethyl-benzenesulfonyl)-piperazine-2-carboxylic acid 4-trifluoromethoxy-benzylamide]
[1]; [3]
  IC50: < 100 nM
[2]; [4]
  IC50: < 100 nM

## O=C(NCc1ccc(OC(F)(F)F)cc1)[C@H]1CN(c2cnc3cncnc3n2)CCN1S(=O)(=O)c1ccc([N+](=O)[O-])cc1 [Example 790, (R)-1-(4-nitro-benzenesulfonyl)-4-pteridin-7-yl-piperazine-2-carboxylic acid 4-trifluoromethoxy-benzylamide]
[1]; [3]
  IC50: < 100 nM
[2]; [4]
  IC50: < 100 nM

## CC(C)c1ccc(CNC(=O)[C@H]2CN(C(=O)Cn3cnnc3)CCN2S(=O)(=O)c2ccc(C(F)(F)F)cc2)cc1 [Example 230, (R)-4-(2-[1,2,4]triazol-4-yl-acetyl)-1-(4-trifluoromethyl-benzenesulfonyl)-piperazine-2-carboxylic acid 4-isopropyl-benzylamide]
[1]; [5]
  IC50: < 100 nM
[2]; [6]
  IC50: < 100 nM

## Cc1nc(N2CCN(S(=O)(=O)c3ccc(OC(F)(F)F)cc3)[C@@H](C(=O)NCc3ccc(C(C)C)cc3)C2)sc1C(N)=O [Example 340, (R)-4-(5-carbamoyl-4-methyl-thiazol-2-yl)-1-(4-trifluoromethoxy-benzenesulfonyl)-piperazine-2-carboxylic acid 4-isopropyl-benzylamide]
[1]; [5]
  IC50: < 100 nM
[2]; [6]
  IC50: < 100 nM

## CCCc1ccc(CNC(=O)[C@H]2CN(c3nc(Cl)c(C(=O)O)s3)CCN2S(=O)(=O)c2ccc(CC)cc2)cc1 [Example 868, 4-chloro-2-[(R)-4-(4-ethyl-benzenesulfonyl)-3-(4-propyl-benzylcarbamoyl)-piperazin-1-yl]-thiazole-5-carboxylic acid]
[1]; [3]
  IC50: < 100 nM
[2]; [4]
  IC50: < 100 nM

## CCCc1ccc(CNC(=O)[C@H]2CN(c3nc4cn[nH]c(=O)c4s3)CCN2S(=O)(=O)c2ccc([N+](=O)[O-])cc2)cc1 [Example 825, (R)-1-(4-nitro-benzenesulfonyl)-4-(7-oxo-6,7-dihydro-thiazolo[4,5-d]pyridazin-2-yl)-piperazine-2-carboxylic acid 4-propyl-benzylamide]
[1]; [3]
  IC50: < 100 nM
[2]; [4]
  IC50: < 100 nM

## O=C(NCc1ccc(OC(F)(F)F)cc1)[C@H]1CN(c2nc3nc(Cl)ncc3s2)CCN1S(=O)(=O)c1ccc(C(F)(F)F)s1 [Example 947, (R)-4-(5-chloro-thiazolo[4,5-d]pyrimidin-2-yl)-1-(5-trifluoromethyl-thiophene-2-sulfonyl)-piperazine-2-carboxylic acid 4-trifluoromethoxy-benzylamide]
[1]; [3]
  IC50: < 100 nM
[2]; [4]
  IC50: < 100 nM

## CCCc1ccc(CNC(=O)[C@H]2CN(c3nc(C)c(S(=O)(=O)N(C)C)s3)CCN2S(=O)(=O)c2ccc(OC(F)(F)F)cc2)cc1 [Example 829, (R)-4-(5-dimethylsulfamoyl-4-methyl-thiazol-2-yl)-1-(4-trifluoromethoxy-benzenesulfonyl)-piperazine-2-carboxylic acid 4-propyl-benzylamide]
[1]; [3]
  IC50: < 100 nM
[2]; [4]
  IC50: 100 to 1000 nM

## CCCc1ccc(CNC(=O)[C@H]2CN(c3nc(C)c(C(=O)O)s3)CCN2S(=O)(=O)c2ccc(OC(F)(F)F)cc2)cc1 [Example 378, 4-methyl-2-[(R)-3-(4-propyl-benzylcarbamoyl)-4-(4-trifluoromethoxy-benzenesulfonyl)-piperazin-1-yl]-thiazole-5-carboxylic acid]
[1]; [5]
  IC50: < 100 nM
[2]; [6]
  IC50: < 100 nM

## CC(=O)N1CCN(S(=O)(=O)c2ccc(C(C)C)cc2)[C@H](C(=O)NCc2ccc(C(F)(F)F)cc2)C1 [Example 19, (S)-4-acetyl-1-(4-isopropyl-benzenesulfonyl)-piperazine-2-carboxylic acid 4-trifluoromethyl-benzylamide]
[1]; [5]
  IC50: > 1000 nM
[2]; [6]
  IC50: > 1000 nM

## COc1ccccc1CC(=O)N1CCN(S(=O)(=O)c2ccc(C(F)(F)F)cc2)[C@@H](C(=O)NCc2ccc(C(C)C)cc2)C1 [Example 267, (R)-4-[2-(2-methoxy-phenyl)-acetyl]-1-(4-trifluoromethyl-benzenesulfonyl)-piperazine-2-carboxylic acid 4-isopropyl-benzylamide]
[1]; [5]
  IC50: 100 to 1000 nM
[2]; [6]
  IC50: > 1000 nM

## CC(C)(C)c1ccc(CNC(=O)[C@H]2CN(c3cnc(C(=O)O)cn3)CCN2S(=O)(=O)c2ccc(OC(F)(F)F)cc2)cc1 [Example 501, (R)-3-(4-tert-butyl-benzylcarbamoyl)-4-(4-trifluoromethoxy-benzenesulfonyl)-3,4,5,6-tetrahydro-2H-[1,2′]bipyrazinyl-5′-carboxylic acid]
[1]; [5]
  IC50: < 100 nM
[2]; [6]
  IC50: < 100 nM

## Cc1nc(N2CCN(S(=O)(=O)c3ccc4c(c3)CCCCC4)[C@@H](C(=O)NCc3ccc(C(C)C)cc3)C2)sc1C(=O)O [Example 381, 2-[(R)-3-(4-isopropyl-benzylcarbamoyl)-4-(6,7,8,9-tetrahydro-5H-benzocycloheptene-2-sulfonyl)-piperazin-1-yl]-4-methyl-thiazole-5-carboxylic acid]
[1]; [5]
  IC50: < 100 nM
[2]; [6]
  IC50: < 100 nM

## CC(C)(C)c1ccc(CNC(=O)[C@H]2CN(C(=O)/C=C\C(=O)O)CCN2S(=O)(=O)c2ccc(OC(F)(F)F)cc2)cc1 [Example 665, (Z)-4-[(R)-3-(4-tert-butyl-benzylcarbamoyl)-4-(4-trifluoromethoxy-benzenesulfonyl)-piperazin-1-yl]-4-oxo-but-2-enoic acid]
[1]; [3]
  IC50: > 1000 nM
[2]; [4]
  IC50: > 1000 nM

## CC(C)c1ccc(CNC(=O)[C@H]2CN(C(=O)CCN)CCN2S(=O)(=O)c2ccc(C(F)(F)F)cc2)cc1 [Example 189, (R)-4-(3-amino-propionyl)-1-(4-trifluoromethyl-benzenesulfonyl)-piperazine-2-carboxylic acid 4-isopropyl-benzylamide hydrochloride]
[1]; [5]
  IC50: > 1000 nM
[2]; [6]
  IC50: > 1000 nM

## CC(=O)N1CCN(S(=O)(=O)c2cccc(Cl)c2)C(C(=O)NCc2ccc(C(F)(F)F)cc2)C1 (stereo not shown) [Example 29, 4-acetyl-1-(3-chloro-benzenesulfonyl)-piperazine-2-carboxylic acid 4-trifluoromethyl-benzylamide]
[1]; [5]
  IC50: > 1000 nM
[2]; [6]
  IC50: > 1000 nM
